The values that follow come from US5439939A, “Pharmaceutical compositions and methods using isobutyramide for treating betaglobin disorders” (Children's Hospital Medical Center of Northern California, priority 1992, dated 1995).

SMILES strings stand for the structures.

The conditions of data set [1]: administered in therapeutically effective amounts; cited from earlier work.
In data set [2] the test system is reticulocytes containing gammaglobin (F-retics). Description: Effect of isobutyramide on percentage of F-retics to total reticulocytes in anemic baboons in vivo. More on the design: species or system baboon (Papio anubis). The method, then:
(§1) Adult, male baboons (Papio anubis) were used as experimental animals. Three baboons were rendered anemic by daily phlebotomy for at least about 30 days, and maintained at hematocrit values of about 22% by daily phlebotomy. Each anemic baboon was treated with isobutyramide. One baboon (no. 767) received isobutyramide by oral formulation of 150 mg isobutyramide per ml of distilled sterile water administered through a naso-gastric tube three times per week for three weeks. This baboon received isobutyramide at a dosage of 600 mg per kg of body weight. Another baboon (no. 224) received isobutyramide by parenteral formulation of 150 mg isobutyramide per ml of distilled sterile water administered by intravenous infusion over a 30 minute period one time per day for three weeks. This baboon received isobutyramide at a dosage of 500 mg per kg of body weight. Another baboon (no. 207) received isobutyramide by parenteral formulation of 150 mg isobutyramide per ml of distilled sterile water administered by intravenous infusion over a 30 minute period one time per day for three days. This baboon received isobutyramide at a dosage of 500 mg per kg of body weight. The experiment was terminated with this baboon after three days due to an infection. Blood samples were taken throughout the course of treatment. Samples were assayed to determine the percentage of gammaglobin to total gamma-globin and betaglobin (Table 1) and the percentage of total reticulocytes containing gammaglobin, sometimes called "F-retics" (Table 2). The assay to measure the percentage of gammaglobin to total gamma-globin and betaglobin was by the method described in Perrine, S. P., et al., Delay In The Fetal Globin Switch In Infants Of Diabetic Mothers, New Eng. J. Med. vol.312, pp.334-338 (1985). The assay to measure the percentage of total reticulocytes containing gammaglobin was performed by the method described in Rogers, G., et al., Hematologic Response of Patients with Sickle Cell Disease To Treatment with Hydroxyurea, New Eng. J. Med., vol.322, pp.1037-1045 (1990).

Data set [3] is described as follows: Plasma levels of isobutyramide after administration. In kind it is in vivo, baboon and human. Here is the method: Adult, male baboons (Papio anubis) were used as experimental animals. Three baboons were rendered anemic by daily phlebotomy for at least about 30 days, and maintained at hematocrit values of about 22% by daily phlebotomy. Each anemic baboon was treated with isobutyramide. One baboon (no. 767) received isobutyramide by oral formulation of 150 mg isobutyramide per ml of distilled sterile water administered through a naso-gastric tube three times per week for three weeks. This baboon received isobutyramide at a dosage of 600 mg per kg of body weight. Another baboon (no. 224) received isobutyramide by parenteral formulation of 150 mg isobutyramide per ml of distilled sterile water administered by intravenous infusion over a 30 minute period one time per day for three weeks. This baboon received isobutyramide at a dosage of 500 mg per kg of body weight. […]
Isobutyramide was administered orally to the baboon (no.767) and parenterally to another baboon (no.224) as described in Example 3. The plasma concentrations of the isobutyramide at various times after a single oral dose to those baboons are shown in FIG. 1 (measured by gas liquid chromatography and expressed in millimoles per liter ("mM")). […]

Data set [4] deals with erythroid progenitors from peripheral blood. Description: Effect of isobutyramide in vitro on percentage of gammaglobin to total gamma plus betaglobin in cultured erythroid progenitors. The settings on record: 0.2 mM, about 14 days. In kind it is cell-based, human. Here is the method: Cultures of erythroid progenitors from peripheral blood of patients having a betaglobin disorder and normal subjects were cultured for about 14 days in presence of 0.2 millimoles per liter ("mM") isobutyramide and the percentages of gammaglobin to total gamma plus betaglobin were assayed substantially according to the methods described in Perrine, S. P. et al., Sodium Butyrate Enhances Fetal Globin Gene Expression in Erythroid Progenitors of Patients With Hb SS and Beta Thalassemia, Blood, vol.74, pp.454-459 (1989). The patients with sickle-cell anemia are identified as "SS" and with beta-thalassemia as "beta-thal." Ages are specified in years.

The conditions of data set [5]: species not given; cited from earlier work.
Another data set concerns gammaglobin. Description: Effect of isobutyramide on percentage of gammaglobin to total gamma plus betaglobin in anemic baboons in vivo. On the set-up: species or system baboon (Papio anubis). The method, then:
as §1

The conditions of data set [6]: standard assays; cited from earlier work.

In the case of `CC(C)C(N)=O` [isobutyramide, Isobutyramide], the toxicity entry in data set [1] is listed as “substantially non-toxic”. For the same molecule, the “Percentage of F-retics to total reticulocytes, treatment” value in data set [2] (baboon 207, 500 mg per kg i.v. infusion over 30 min, once per day for three days, pre-treatment 3) was found to be 15%; in data set [2] (baboon 224, 500 mg per kg i.v. infusion over 30 min, once per day for three weeks, pre-treatment 16) it was 27%; in data set [2] (baboon 767, 600 mg per kg oral (naso-gastric tube), three times per week for three weeks, pre-treatment 13), 17%. In addition, in data set [3] (oral and parenteral administration), the plasma levels entry is recorded as “sufficient to yield therapeutic effects”. The half-life (commonly the time in which the quantity being followed falls by half) in data set [3] (plasma, after oral or parenteral administration, species not specified (baboons and humans)) was in the range of 7.6 to 10.5 h. Further, the “production of fetal hemoglobin in culture” value in data set [4] (Table 3) was “significantly stimulated the production of fetal hemoglobin in culture”. For the same molecule, the “Percentage of gammaglobin to total gamma plus betaglobin, treatment” value in data set [4] (SS (sickle-cell anemia), age 10-11, pre-treatment 22) was 40%; in data set [4] (SS (sickle-cell anemia), pre-treatment 17), 96%; in data set [4] (SS (sickle-cell anemia), pre-treatment 42), 55%; in data set [4] (SS (sickle-cell anemia), pre-treatment 70) it was 78%; in data set [4] (beta-thal, newborn, pre-treatment 40), 50%; in data set [4] (beta-thal, pre-treatment 65), 98%. The “Percentage of gammaglobin to total gamma plus betaglobin, treatment” value in data set [4] (beta-thal, pre-treatment 70) amounted to 64%; in data set [4] (normal, newborn, pre-treatment 5), 45%; in data set [4] (normal, newborn, pre-treatment 20), 26%; in data set [4] (normal, newborn, pre-treatment 69), 72%. For the same molecule, the “acute intravenous LD 50” value in data set [5] is “about 3 g per kilogram”. In the data set with gammaglobin (anemic baboons, Tables 1 and 2), the “production of fetal hemoglobin in vivo” value is “significantly stimulated the production of fetal hemoglobin”. Further, the “Percentage of gammaglobin to total gamma plus betaglobin, treatment (highest achieved)” value with gammaglobin (baboon 207, 500 mg per kg i.v. infusion over 30 min, once per day for three days, pre-treatment 0) amounted to 9%; with gammaglobin (baboon 224, 500 mg per kg i.v. infusion over 30 min, once per day for three weeks, pre-treatment 2), 11%; with gammaglobin (baboon 767, 600 mg per kg oral (naso-gastric tube), three times per week for three weeks, pre-treatment 3), 12%. Besides, the mutagenicity result in data set [6] was “not mutagenic”.
